Earlier results, collected in patent publication US10160778B2, “Pyrimidine phosphonic acid esters” (Concert Pharmaceuticals, Inc., priority 2014, dated 2018).

Conditions: phase II study for the prevention of cytomegalovirus infection

Structure (SMILES): CCCCCCCCCCCCCCCCOCCCOP(=O)(O)CO[C@H](CO)Cn1ccc(N)nc1=O [brincidofovir, 3-(hexadecyloxy)propyl hydrogen ((((S)-1-(4-amino-2-oxopyrimidin-1 (2H)-yl)-3-hydroxypropan-2-yl)oxy)methyl)phosphonate]
- dose-limiting side effect: diarrhea
